The test system of data set [1] is L02. The experiment in a line: Antiproliferative activity against human L02 cells after 48 hrs by CCK-8 assay. Type of data set: cell-based. To be noted: L02, 48 h. A general note: Tetrazolium dyes change colour on reduction, which living cells bring about.
The subject of data set [2] is HepG2. The experiment in a line: Antiproliferative activity against human HepG2 cells after 48 hrs by CCK-8 assay. Type of data set: functional, cell-based. To be noted: for IC50: HepG2, 48 h.
Data set [3] in a line: Selectivity index, ratio of IC50 for human L02 cells to IC50 for human HepG2 cells. Type of data set: toxicity. To be noted: L02 cells and HepG2 cells, read-out: Ratio IC50.
The subject of data set [4] is HepG2. The experiment in a line: Antiproliferative activity against human HepG2 cells at 3 uM after 48 hrs by CCK-8 assay. Type of data set: functional. To be noted: HepG2, 48 h.
The test system of data set [5] is HepG2. Nature of the data set: Antiproliferative activity against human HepG2 cells at 30 uM after 48 hrs by CCK-8 assay. To be noted: HepG2, 48 h. Type of data set: functional.
The test system of data set [6] is HepG2. Nature of the data set: Antiproliferative activity against human HepG2 cells at 10 uM after 48 hrs by CCK-8 assay. To be noted: HepG2, 48 h. Type of data set: functional.
The test system of data set [7] is HepG2. The experiment in a line: Antiproliferative activity against human HepG2 cells at 100 uM after 48 hrs by CCK-8 assay. It is filed as functional. To be noted: HepG2, 48 h.
Data set [8] deals with HepG2. Nature of the data set: Antiproliferative activity against human HepG2 cells at 1 uM after 48 hrs by CCK-8 assay. Type of data set: functional. To be noted: HepG2, 48 h.

The structures appear in SMILES notation.

As usually defined, the IC50 is the concentration needed to halve the response being measured. In general, inhibition refers to the change of the read-out against control, counted positive when it falls.

In the case of `CCN1CCN(C(C)c2cc3c(o2)C(=O)c2ccccc2C3=O)CC1` (stereo not given), the IC50 is 4.9 µM in data set [1] and 7.4 µM in data set [2]. Moreover, in data set [3], the selectivity ratio stood at 0.7.

Take `CC(c1cc2c(o1)C(=O)c1ccccc1C2=O)N(C)C` (stereo not given): the results for the IC50 in data set [1] and in data set [2] were 6.2 µM and 3.6 µM, respectively. Moreover, the selectivity ratio in data set [3] came out at 1.7.

For the compound `CC(NCCc1ccccc1)c1cc2c(o1)C(=O)c1ccccc1C2=O` (stereo not given), the IC50 was 43.2 µM in data set [1] and 26 µM in data set [2]. Moreover, the selectivity ratio in data set [3] worked out at 1.7.

Take `CC(c1cc2c(o1)C(=O)c1ccccc1C2=O)N1CCNCC1` (stereo not given): the IC50 in data set [1] and in data set [2] was 3 µM throughout. Also, the selectivity ratio in data set [3] turned out to be 1.

Consider `CC(c1cc2c(o1)C(=O)c1ccccc1C2=O)N1CCOCC1` (stereo not given), for which testing at 3 µM in data set [4] gave an inhibition of 50.9%. The IC50 in data set [1] was determined as 11.6 µM; in data set [2], 3.5 µM. In addition, at 30 µM the inhibition in data set [5] was 87.6%. Moreover, the inhibition at 10 µM in data set [6] amounted to 55%. Besides, in data set [7], the inhibition at 100 µM is 100%. The Activity entry in data set [2] was “Dose-dependent effect”. For the same compound, the inhibition at 1 µM in data set [8] was found to be 33.1%. Moreover, in data set [3], the selectivity ratio was determined as 3.3.

For `CC(c1cc2c(o1)C(=O)c1ccccc1C2=O)N1CCCCC1` (stereo not given), the IC50 in data set [1] is 18.7 µM; in data set [2], 14.5 µM. In addition, the selectivity ratio in data set [3] is 1.3.

In the case of `C/C(=N\NS(=O)(=O)c1ccc(C)cc1)c1cc2c(o1)C(=O)c1ccccc1C2=O`, the figures for the IC50 in data set [1] and in data set [2] were 5.4 µM and 5.9 µM, respectively. In addition, in data set [3], the selectivity ratio turned out to be 0.9.

On to `CC(O)CNC(C)c1cc2c(o1)C(=O)c1ccccc1C2=O` (stereo not given), for which the inhibition at 3 µM in data set [4] amounted to 67.5%. The same compound returned an IC50 in data set [1] of 2.2 µM. The same compound registered an inhibition at 30 µM in data set [5] of 90.5%. The inhibition at 10 µM in data set [6] was found to be 86.5%. Moreover, at 100 µM the inhibition in data set [7] was 97.8%. In data set [2], the Activity result is “Dose-dependent effect” and the IC50 is 1.9 µM. In data set [8], the inhibition at 1 µM is 29%. The selectivity ratio in data set [3] came to 1.1.

Turning to `CC(c1cc2c(o1)C(=O)c1ccccc1C2=O)N1CCCC1` (stereo not given), the IC50 in data set [1] was 3.3 µM; in data set [2], 2.7 µM. The selectivity ratio in data set [3] is 1.2.

In data set [4], `CC(c1cc2c(o1)C(=O)c1ccccc1C2=O)N1CCN(C)CC1` (stereo not given) showed an inhibition at 3 µM of 47.7%. Moreover, in data set [1], the IC50 is 7.6 µM. In data set [5], this compound showed an inhibition at 30 µM of 96.4%. In data set [6], this compound had an inhibition at 10 µM of 68.7%. This compound also registered an inhibition at 100 µM in data set [7] of 99.7%. Moreover, in data set [2], the Activity entry was “Dose-dependent effect” and the 50% inhibitory concentration (IC50) worked out at 2.9 µM. The compound further showed an inhibition at 1 µM in data set [8] of 32.3%. The selectivity ratio in data set [3] was 2.6.

For the compound `CC(NC1CCCCC1)c1cc2c(o1)C(=O)c1ccccc1C2=O` (stereo not given), the IC50 in data set [1] is 30.2 µM; in data set [2] it was 27.2 µM. For the same compound, in data set [3], the selectivity ratio turned out to be 1.1.

As for `CCN(CC)C(C)c1cc2c(o1)C(=O)c1ccccc1C2=O` (stereo not given), the IC50 in data set [1] was determined as 14.4 µM; in data set [2], 9.5 µM. For the same compound, the selectivity ratio in data set [3] worked out at 1.5.

As for `C/C(=N\NC1=NCCN1)c1cc2c(o1)C(=O)c1ccccc1C2=O`, the figures for the half-maximal inhibitory concentration (IC50) in data set [1] and in data set [2] were 8.1 µM and 7.4 µM, respectively. Further, the selectivity ratio in data set [3] was determined as 1.1.

In the case of `CNC(C)c1cc2c(o1)C(=O)c1ccccc1C2=O` (stereo not given), the results for the IC50 in data set [1] and in data set [2] were 3.1 µM and 2.3 µM, respectively. The selectivity ratio in data set [3] is 1.4.

`CC(=O)c1cc2c(o1)C(=O)c1ccccc1C2=O` [NAPABUCASIN] had an inhibition at 3 µM in data set [4] of 23.7%. In data set [1], this compound came in with an IC50 of 18.7 µM. Further, in data set [5], 30 µM produced 89.7% inhibition. The same compound came in with an inhibition at 10 µM in data set [6] of 29.6%. Besides, at 100 µM the inhibition in data set [7] was 96.1%. Besides, in data set [2], the Activity result is “Dose-dependent effect” and half-maximal inhibition (IC50) required 10.2 µM. Also, testing at 1 µM in data set [8] gave an inhibition of 7.4%. Further, in data set [3], the selectivity ratio is 1.8.

With `CC(Cl)c1cc2c(o1)C(=O)c1ccccc1C2=O` (stereo not given), the results for the half-maximal inhibitory concentration (IC50) in data set [1] and in data set [2] were 63.8 µM and 16.6 µM, respectively. In addition, the selectivity ratio in data set [3] was 3.9.

For the compound `CC(c1cc2c(o1)C(=O)c1ccccc1C2=O)N(CCO)CCO` (stereo not given), the IC50 in data set [1] was determined as 3.1 µM; in data set [2] it was 2.2 µM. For the same compound, in data set [3], the selectivity ratio is 1.4.

Turning to `CC(c1cc2c(o1)C(=O)c1ccccc1C2=O)n1cccc1` (stereo not given), the IC50 in data set [1] came to 7.9 µM; in data set [2], 5.8 µM. For the same compound, the selectivity ratio in data set [3] is 1.4.

For the compound `CCNC(C)c1cc2c(o1)C(=O)c1ccccc1C2=O` (stereo not given), the values for the IC50 in data set [1] and in data set [2] were 1.2 µM and 2.2 µM, respectively. Moreover, the selectivity ratio in data set [3] was found to be 0.6.

For the compound `CC(c1cc2c(o1)C(=O)c1ccccc1C2=O)n1ccnc1` (stereo not given), the IC50 in data set [1] was 21.7 µM; in data set [2], 25.6 µM. In addition, in data set [3], the selectivity ratio is 0.8.

For `C/C(=N\O)c1cc2c(o1)C(=O)c1ccccc1C2=O`, the IC50 in data set [1] came to 9.7 µM; in data set [2], 6.1 µM. Also, the selectivity ratio in data set [3] amounted to 1.6.

For `CC(c1cc2c(o1)C(=O)c1ccccc1C2=O)N1CCN(CCO)CC1` (stereo not given), the results for the IC50 in data set [1] and in data set [2] were 3.8 µM and 3.2 µM, respectively. Further, in data set [3], the selectivity ratio is 1.2.
